Molecular target: Bifunctional protein GlmU (Escherichia coli (strain K12), UniProt P0ACC7)
Experiment: Inhibition of Escherichia coli GlmU acetyltransferase activity assessed as coenzyme A production using acetyl CoA substrate

Chain of Bifunctional protein GlmU (P0ACC7 whole entry): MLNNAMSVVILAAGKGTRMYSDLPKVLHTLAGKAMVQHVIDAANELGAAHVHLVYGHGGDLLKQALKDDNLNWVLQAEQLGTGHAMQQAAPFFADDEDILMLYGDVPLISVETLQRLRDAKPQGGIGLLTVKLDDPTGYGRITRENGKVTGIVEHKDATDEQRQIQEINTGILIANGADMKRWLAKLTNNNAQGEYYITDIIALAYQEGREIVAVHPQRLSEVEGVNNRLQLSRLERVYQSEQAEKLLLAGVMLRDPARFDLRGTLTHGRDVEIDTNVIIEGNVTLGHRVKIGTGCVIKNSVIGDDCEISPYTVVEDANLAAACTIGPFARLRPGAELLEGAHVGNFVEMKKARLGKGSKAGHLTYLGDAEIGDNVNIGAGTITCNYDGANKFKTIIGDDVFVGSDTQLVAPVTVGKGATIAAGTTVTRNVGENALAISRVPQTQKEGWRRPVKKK

Compared with COc1cc(OC)c(S(=O)(=O)NCc2ccccc2Br)cc1NC(C)=O, COc1ccccc1CNS(=O)(=O)c1cc(NC(C)=O)c(OC)cc1OC is 2.5-fold higher in IC50: 4000 nM for the first, 10000 nM for the second. The first is the more potent here.

First: COc1cc(OC)c(S(=O)(=O)NCc2ccccc2N2CCC(COC(=O)CCC(=O)O)CC2)cc1NC(=O)CCC(=O)O
Second: COc1cc(OC)c(S(=O)(=O)NCc2ccccc2N2CCC(CC(=O)O)CC2)cc1NC(=O)CCC(=O)O
The IC50 of the first is 1.6-fold lower: 250 nM for the first, 400 nM for the second.

Compared with COc1cc(OC)c(S(=O)(=O)N2CCC[C@H]2C)cc1NC(C)=O, COc1cc(OC)c(S(=O)(=O)N2CCCCC2)cc1NC(C)=O is 2.5-fold lower in IC50: 200000 nM for the first, 80000 nM for the second. The second is the more potent here.

First: COc1cc(OC)c(S(=O)(=O)N2c3ccccc3CC[C@H]2C)cc1NS(C)(=O)=O
Second: COc1cc(OC)c(S(=O)(=O)N2c3ccccc3CC[C@H]2C)cc1NC(C)=O
The IC50 of the first is 67-fold higher: 100000 nM for the first, 1500 nM for the second. The second is the more potent here.

First: COc1cc(OC)c(S(=O)(=O)Nc2ccc(F)cc2)cc1NC(C)=O
Second: COc1cc(OC)c(S(=O)(=O)Nc2cccc(F)c2)cc1NC(C)=O
The IC50 of the first is 1.7-fold higher: 25000 nM for the first, 15000 nM for the second.

COc1cc(O)c(S(=O)(=O)N2c3ccccc3CC[C@H]2C)cc1NC(=O)[C@H]1[C@H](C)[C@H]1C(=O)O and COc1cc(OC)c(S(=O)(=O)N2c3ccccc3CC[C@@H]2C)cc1NC(=O)[C@@H]1[C@@H](C)[C@H]1C(=O)O are within 1.5-fold of each other in IC50: 480 nM for the first, 400 nM for the second.

Going from COc1cc(OC)c(S(=O)(=O)NCc2ccc3c(c2)OCO3)cc1NC(C)=O to COc1cc(OC)c(S(=O)(=O)Nc2cccc(C)c2)cc1NC(C)=O, the IC50 falls from 200000 nM to 17000 nM (12-fold). The second is the more potent here.

Going from COc1cc(OC)c(S(=O)(=O)N2c3ccccc3CC[C@@H]2C)cc1NC(=O)c1ccccc1 to COc1cc(OC)c(S(=O)(=O)N2c3ccccc3CC[C@H]2C)cc1NC(=O)NCC(=O)O, the IC50 falls from 200000 nM to 500 nM (400-fold). The second is the more potent here.

Compared with COc1cc(OC)c(S(=O)(=O)N2c3ccccc3Oc3ccccc32)cc1NC(=O)[C@H]1[C@@H](C)[C@H]1C(=O)O, COc1cc(OC)c(S(=O)(=O)N2c3ccccc3Oc3ccccc32)cc1NC(=O)/C=C/C(=O)O is 3-fold lower in IC50: 30 nM for the first, 10 nM for the second.

Compared with COc1cc(OC)c(S(=O)(=O)N2c3ccccc3Oc3ccccc32)cc1NC(=O)Cc1ccncc1, COc1cc(OC)c(S(=O)(=O)N2c3ccccc3Oc3ccccc32)cc1NC(=O)CCC(=O)O is 6-fold lower in IC50: 60 nM for the first, 10 nM for the second.

Compared with COc1cc(OC)c(S(=O)(=O)N(c2ccccc2)c2ccc3ccccc3c2)cc1NC(=O)CCC(=O)O, COc1cc(OC)c(S(=O)(=O)N(c2ccccc2)c2ccc(N)cc2)cc1NC(=O)CCC(=O)O is 2-fold lower in IC50: 40 nM for the first, 20 nM for the second. The second is the more potent here.

Compared with COc1cc(OC)c(S(=O)(=O)N2c3ccccc3CC[C@@H]2C)cc1NC(=O)CCc1nn[nH]n1, COc1cc(OC)c(S(=O)(=O)N2c3ccccc3CC[C@@H]2C)cc1NC(=O)CCC(=O)O is 4.8-fold lower in IC50: 430 nM for the first, 90 nM for the second.

Going from COc1cc(OC)c(S(=O)(=O)N2c3ccccc3CC[C@@H]2C)cc1NC(=O)/C=C/C(=O)O to COc1cc(OC)c(S(=O)(=O)N2c3ccccc3CC[C@@H]2C)cc1NC(=O)COCC(=O)O, the IC50 falls from 500 nM to 200 nM (2.5-fold).

Going from COc1cc(OC)c(S(=O)(=O)N2Cc3ccccc3Oc3ccccc32)cc1NC(=O)CCC(=O)O to COc1cc(OC)c(S(=O)(=O)NCc2ccccc2-c2ccc(C(=O)O)cc2)cc1NC(=O)CCC(=O)O, the IC50 rises from 30 nM to 900 nM (30-fold). The first is the more potent here.

First: COc1cc(OC)c(S(=O)(=O)NCc2ccccc2N2CCC(C(=O)O)CC2)cc1NC(=O)CCC(=O)O
Second: COc1cc(OC)c(S(=O)(=O)NCc2ccccc2N2CCC(CO)CC2)cc1NC(=O)CCC(=O)O
The IC50 of the first is 6-fold lower: 500 nM for the first, 3000 nM for the second. The first is the more potent here.

Compared with COc1cc(OC)c(S(=O)(=O)Nc2ccccc2)cc1NC(C)=O, COc1cc(OC)c(S(=O)(=O)N(C)c2ccccc2)cc1NC(C)=O is 6.7-fold lower in IC50: 20000 nM for the first, 3000 nM for the second. The second is the more potent here.

Compared with COc1cc(OC)c(S(=O)(=O)N2c3ccccc3CC[C@H]2C)cc1NC(=S)NCC(=O)O, COc1cc(OC)c(S(=O)(=O)N2c3ccccc3CC[C@@H]2C)cc1NC(=O)Cc1ccnc(F)c1 is 1.6-fold higher in IC50: 500 nM for the first, 800 nM for the second.
